What is called EC50 is the concentration giving half of the maximal effect.

The nature of this assay: competition binding assay for cardiolipin with fluorescent probe I and CL-DOPC liposomes (25:75 mol %). The note with it: for EC50: 20 mM HEPES buffer, 2.5 μM CL, 5 μM I, means ± S.D. from 3 independent experiments; for EC50 range (in words): pH 7.4 and 6.8; for relative binding affinity for CL within the studied set (in words): comparison of EC50 values; for effect of pH change on interaction with CL: pH 7.4 versus 6.8. Here is the method: Lipid vesicles may be composed of CL and a helper phospholipid (preferentially a phosphatidylcholine) or may have a more complex composition with several phospholipids, provided that the formulation is stable in the used medium. […] [18]
Final concentration of the fluorescent probe I may range from 0.2 μM to 25 μM. Optimal incubation temperature is 37° C. because it represents physiological temperature and allows shortening of the incubation time.
A fluorimeter is required that is capable of scanning emission intensity at a desired wavelength, as well as a plate shaker-thermostat. Assay is carried out in 96-well microplates for fluorescence-based assays. […]
Also place a triplicate of CL containing lipid vesicles without a ligand (vehicle); • 3. Place the 96-well microplate in a plate shaker-thermostat for 10 min (500 RPM, 37° C.). • 4. Add appropriate amount of I stock solution (I final concentration 5 μM) to the wells, including wells containing vehicle, and mix gently with a micro pipette by sucking the solution gently up and down (approximately 5 times); • 5. Incubate for 15 min in a plate shaker-thermostat (500 RPM, 37° C.); • 6. Measure fluorescence intensity at an excitation and emission wavelength of 497 and 529 nm, respectively; • 7. […] Plot the normalized fluorescence intensity against the concentration of the ligand on a logarithmic scale; • 9. Fit the titration curve with a suitable fitting model to calculate EC50 values.

Where a name gives a salt, the structure may show the parent alone.

`COc1cccc2c1C(=O)c1c(O)c3c(c(O)c1C2=O)C[C@@](O)(C(C)=O)C[C@@H]3O[C@H]1C[C@H](N)[C@H](O)[C@H](C)O1` [Example 6, (8S,10S)-8-acetyl-10-(((2R,4S,5S,6S)-4-amino-5-hydroxy-6-methyltetrahydro-2H-pyran-2-yl)oxy)-6,8,11-trihydroxy-1-methoxy-7,8,9,10-tetrahydrotetracene-5,12-dione hydrochloride] had an EC50 (pH = 7.4) of 4.35 ± 1.25 µM.

Where the note is “pH = 7.4”, “(2R,3R,4S,5S,6S)-5-amino (((2R,3S,4R,4aR,6S,7R,8aS)-7-amino-6-(((1R,2R,3S,4R,6S)-4,6-diamino-2,3-dihydroxycyclohexyl)oxy)-4-hydroxy-3-(methylamino)octahydropyrano[3,2-b]pyran-2-yl)oxy)-6-(hydroxymethyl)tetrahydro-2H-pyran-3,4-diol sulfate [Example 9]” showed an EC50 of 3.34 ± 0.95 µM.

Under “pH = 7.4”, `[Cl-].[Cl-].[Mg+2]` [Example 4, Magnesium chloride] showed an EC50 of 1930 ± 20.5 µM.

Take `COc1cccc2c1C(=O)c1c(O)c3c(c(O)c1C2=O)C[C@@](O)(C(=O)CO)C[C@@H]3O[C@H]1C[C@H](N)[C@@H](O)[C@H](C)O1` [Example 5, (8S,10S)-10-(((2R,4S,5R,6S)-4-amino-5-hydroxy-6-methyltetrahydro-2H-pyran-2-yl)oxy)-6,8,11-trihydroxy-8-(2-hydroxyacetyl)-1-methoxy-7,8,9,10-tetrahydrotetracene-5,12-dione hydrochloride]: the EC50 was 5.86 ± 0.25 µM (pH = 6.8) and 6.94 ± 0.9 µM (pH = 7.4).

Regarding `CCCCCCCCCCCC[N+](C)(C)C.[Cl-]` [Example 14, Dodecyltrimethylammonium chloride], the “effect of pH change on interaction with CL” value is “affected by changes of pH”. In addition, for the setting “20 mM HEPES”, the “EC50 range (in words)” value is given as “micromolar range” and the “relative binding affinity for CL within the studied set (in words)” value (“relative binding affinity” for short) is recorded as “lower affinities than studied aminoglycosides or anthracyclines”. This compound returned an EC50 (pH = 6.8) of 74.4 ± 8.47 µM. This compound had an EC50 (pH = 7.4) of 30.7 ± 2.75 µM.

In the case of `Cl.N` [Example 2, Ammonium chloride], the “fold lower affinity for CL than Ca^2+ ions” value (pH 7.4, 20 mM HEPES, FIG. 1B) was found to be 23 fold. Moreover, a half-maximal effect (pH = 7.4) (EC50) was put at 31853 ± 2.3 µM.

With `[H]/N=C(/N)N[C@H]1[C@H](O)[C@@H](O)[C@H](O[C@@H]2O[C@@H](C)[C@](O)(C=O)[C@H]2O[C@@H]2O[C@@H](CO)[C@H](O)[C@@H](O)[C@@H]2NC)[C@@H](N/C(N)=N\[H])[C@@H]1O` [Example 10, 2-[(1R,2R,3S,4R,5R,6S)-3-(diaminomethyldeneamino)-4-[(2R,3R,4R,5S)-3-[(2S,3S,4S,5R,6S)-4,5-dihydroxy-6-(hydroxymethyl)-3-(methylamino)oxan-2-yl]oxy-4-formyl-4-hydroxy-5-methyloxolan-2-yl]oxy-2,5,6-trihydroxycyclohexyl]guanidine], the “relative binding affinity” value (20 mM HEPES, listed as streptomycin) is listed as “lowest affinity for CL”. Further, the EC50 (pH = 7.4) is 9.82 ± 1.76 µM.

`NC[C@H]1O[C@H](O[C@H]2[C@H](O)[C@@H](O[C@H]3O[C@H](CO)[C@@H](O)[C@H](N)[C@H]3O)[C@H](N)C[C@@H]2N)[C@H](N)C[C@@H]1O` [Example 12, (2S,3R,4S,5S,6R)-4-amino-2-{[(1S,2S,3R,4S,6R)-4,6-diamino-3-{[(2R,3R,5S,6R)-3-amino-6-(aminomethyl)-5-hydroxyoxan-2-yl]oxy}-2-hydroxycyclohexyl]oxy}-6-(hydroxymethyl)oxane-3,5-diol] displayed an EC50 (pH = 7.4) of 4.37 ± 0.32 µM.

For the compound Cytochrome c [Example 1], the “relative binding affinity” value (20 mM HEPES) is reported as “the highest binding affinity for CL”. Also, the EC50 (pH = 6.8) is 0.28 ± 0.02 µM and the EC50 (pH = 7.4) amounted to 0.32 ± 0.06 µM.

In the case of `[Ca+2].[Cl-].[Cl-]` [Example 3, Calcium chloride], the “lower EC50 than Mg^2+” value (pH 7.4, 20 mM HEPES, FIG. 1B) is recorded as “≈ 30%”. The EC50 stood at 1290 ± 130 µM (pH = 6.8) and 1334 ± 10.1 µM (pH = 7.4).

`CCCCCCCCC[P+](c1ccccc1)(c1ccccc1)c1ccccc1.[Br-]` [Example 13, Nonyltriphenylphosphonium bromide]: the “effect of pH change on interaction with CL” value is reported as “affected by changes of pH”. Moreover, where the note is “20 mM HEPES”, the “EC50 range (in words)” value is given as “micromolar range” and the “relative binding affinity” value is listed as “lower affinities than studied aminoglycosides or anthracyclines”. Also, for the setting “pH 7.4, 20 mM HEPES, FIG. 2A”, the “affinity for CL higher than that of dodecyltrimethylammonium chloride” value is reported as “≈ 30%”. Moreover, for the setting “pH = 6.8”, the EC50 was determined as 36.6 ± 2.93 µM. Further, the EC50 (pH = 7.4) is 19.8 ± 0.75 µM.

Source of the values: patent publication US12625142B2, “Assay for measuring binding affinity for cardiolipin of biologically active compounds” (Latvian Institute of Organic Synthesis, priority 2020, dated 2026).
